Results on two compounds are retold here after EP4813383A1, “USE OF TAFAMIDIS AND PHARMACEUTICALLY ACCEPTABLE SALT THEREOF IN PREVENTION, ALLEVIATION, OR TREATMENT OF DISEASES ASSOCIATED WITH HIF-2a” (Huaya Jiyuan (Shenzhen) Pharmaceutical Co., Ltd., priority 2024, dated 2025).

The subject of series [1] is Cisplatin-induced renal injury and anemia rat model. Description: Cisplatin-induced renal injury and anemia rat model. The series is classed as in vivo, Male Sprague-Dawley (SD) rats. How it is done:
Male Sprague-Dawley (SD) rats are allowed a one-week acclimation period, after which cisplatin (6 mg/kg) is administered through tail vein injection. A second injection is given one week later. Two weeks after the first administration, successful establishment of a renal disease model is confirmed by measuring serum creatinine and urea levels. The established rat model is randomly divided into four groups: a control group (n = 7), a cisplatin group (n = 6), a roxadustat group (n = 6), and a tafamidis group (n = 6). The roxadustat group and tafamidis group are orally administered the corresponding compound (roxadustat or tafamidis) at 10 mg/kg daily for four consecutive weeks. A corresponding solvent is administered to the control group and cisplatin group rat models based on the same dosing regimen. Urine samples are collected on the day following the final treatment, so as to measure UTP and UCREA. Hematological analysis is performed using a Mindray BC-5150 automated hematology analyzer, and urinalysis is performed using a Mindray BS-2000M automated biochemical analyzer, both using commercially available kits according to the manufacturers' instructions. After sample collection, the rats are euthanized. Statistical significance is determined by one-way analysis of variance (ANOVA), and then a Dunnett's test is performed for comparison with the cisplatin group (*P < 0.05, **P < 0.01, ***P < 0.001).
Left kidney samples collected from cisplatin-induced rats are fixed in 4% paraformaldehyde, dehydrated, embedded in paraffin, and sectioned. The tissue sections are 4 µm thick, and are subsequently subjected to histochemical staining such as hematoxylin-eosin (H&E), periodic acid-Schiff (PAS), and Masson's trichrome staining. After staining, the sections are scanned using advanced three-dimensional histological imaging technology, and high-resolution images are captured using a Pannoramic DESK/MIDI/250/1000 system. To evaluate renal tubular injury, 10 fields are randomly selected from each sample, and examined at a 40× magnification. The degree of renal tubular injury is assessed using a semi-quantitative scoring system (Paller score): 0 (no injury), 1 (<25% injury), 2 (25% to 50% injury), 3 (50% to 75% injury), and 4 (>75% injury). In addition, the entire tissue section is assessed at a 0.7× magnification to determine the extent of collagen fiber deposition shown by Masson's trichrome staining. Semi-quantitative analysis of the collagen fiber area is performed using Image-Pro Plus 6.0 software (Media Cybernetics, Rockville, MD, USA). For glomerular evaluation, 20 glomeruli are randomly selected from each rat and analyzed at a 63× magnification, using mesangial matrix expansion shown by PAS staining as an indicator. Semi-quantitative analysis of the mesangial matrix is likewise performed using Image-Pro Plus 6.0 software. Statistical significance is determined by one-way analysis of variance (ANOVA), and then a Dunnett's test is performed for comparison with the cisplatin group (*P < 0.05, **P < 0.01, ***P < 0.001).
Immunofluorescence staining is performed on 4 µm-thick kidney tissue sections. The sections are deparaffinized and rehydrated through ethanol, and then is subjected to microwave treatment in a 0.01 mol/L sodium citrate buffer (pH 6.0) for antigen retrieval. Subsequently, the sections are incubated overnight at 4 °C with a primary antibody against α-SMA (19245S, Cell Signaling Technology). After incubation, the sections is incubated at room temperature for 30 minutes with an HRP-conjugated secondary antibody (PK10009, Proteintech Group), and localization is performed using a DAB kit. After staining, the sections are scanned using advanced three-dimensional histological imaging technology, and high-resolution images are captured using a Pannoramic DESK/MIDI/250/1000 system. The entire tissue section is assessed at a 0.7× magnification to determine an α-SMA-positive region. […]

In series [2] the test system is aristolochic acid-induced zebrafish model. Description: Aristolochic acid-induced zebrafish model: glomerular filtration (whole-body fluorescence of tracer). The class given is in vivo, Wild-type AB strain zebrafish. The settings on record: 1 µM in aqueous solution; normal group 100%, model group 239%. On the procedure: Wild-type AB strain zebrafish at 2 days post-fertilization are randomly selected and placed in a 6-well plate, with 30 zebrafish treated in each well (treatment group). Other than the normal control group, all treatment groups are exposed to aristolochic acid in aqueous solution to establish a zebrafish renal anemia model. After treatment at 28 °C for 18 hours, a normal control group and a model control group are set up simultaneously. Tafamidis samples are administered in aqueous solution to the treatment groups separately (at concentrations of 0.1 µM and 1 µM separately). Water is administered to the normal control group and the model control group correspondingly, with a volume of 3 mL per well. After continued treatment at 28 °C for 4 hours, all treatment groups are intravenously injected with a fluorescent tracer (dextran tetramethylrhodamine). After a further 1 day of treatment at 28 °C, 10 zebrafish are randomly selected from each treatment group and photographed under a fluorescence microscope. Data are analyzed and collected using NIS-Elements D 3.20 advanced image processing software, and whole-body fluorescence intensity in the zebrafish is analyzed. Statistical analysis of this indicator is used to evaluate the efficacy of the samples in repairing renal injury. Statistical results are expressed as mean±SE. […]

The test system of series [3] is Cisplatin-induced renal injury and anemia rat model. Description: Cisplatin-induced renal injury and anemia rat model. The class given is in vivo, Male Sprague-Dawley (SD) rats. The settings on record: 10 mg/kg daily oral for four weeks, kidney sections.
Series [4] concerns aristolochic acid-induced zebrafish model. Description: Aristolochic acid-induced zebrafish model: cardiac erythrocyte staining intensity (renal anemia). The class given is in vivo, Wild-type AB strain zebrafish. The note with it: 30 hours, normal group 100%, model group 46%. On the procedure:
Wild-type AB strain zebrafish at 2 days post-fertilization are randomly selected and placed in a 6-well plate, with 30 zebrafish treated in each well (treatment group). Other than the normal control group, all treatment groups are exposed to aristolochic acid in aqueous solution to establish a zebrafish renal anemia model. After treatment at 28 °C for 18 hours, a normal control group and a model control group are set up simultaneously. Tafamidis samples are administered in aqueous solution to the treatment groups separately (at concentrations of 0.1 µM and 1 µM separately). Water is administered to the normal control group and the model control group correspondingly, with a volume of 3 mL per well. After continued treatment at 28 °C for 30 hours, staining is performed using o-dianisidine. After staining, 10 zebrafish are randomly selected from each treatment group and photographed under a dissecting microscope. Data is collected using NIS-Elements D 3.20 advanced image processing software, and the staining intensity of cardiac erythrocytes in the zebrafish is analyzed. The statistical significance of this indicator is used to evaluate the efficacy of the sample in alleviating renal anemia. Statistical analysis is performed using SPSS 26.0 software, and p < 0.05 indicates a statistically significant difference.

Where [5] appears, read: 10 mg/kg daily oral for four weeks, urine, versus cisplatin group.
The mark [6] stands for this setting: 10 mg/kg daily oral for four weeks, kidney tissue.
Setting [7] is: 10 mg/kg daily oral for four weeks, urine, versus cisplatin group, p < 0.05.

As to `Cc1nc(C(=O)NCC(=O)O)c(O)c2ccc(Oc3ccccc3)cc12` [roxadustat], the UTP levels result in series [1] (setting [5]) is recorded as “increases”.
Turning to `O=C(O)c1ccc2nc(-c3cc(Cl)cc(Cl)c3)oc2c1` [tafamidis, 2-(3,5-dichlorophenyl)-1,3-benzoxazole-6-carboxylic acid], the glomerular filtration rate in series [2] was 158%. In addition, the “α-smooth muscle actin (α-SMA) protein levels, immunohistochemical” value in series [3] is listed as “significantly reduces”. Besides, in series [1] (setting [6]), the “erythropoietin (EPO) protein levels, Western blot” value was “increasing” and the “α-SMA protein expression, Western blot” value is given as “significantly reduces”. The “cisplatin-induced renal injury, semi-quantitative scoring (H&E, Masson's trichrome, PAS)” value in series [1] (10 mg/kg daily oral for four weeks, left kidney sections) is recorded as “significantly alleviates”. In addition, the UTP levels result in series [1] (setting [5]) is given as “little effect”. In addition, in series [1] (setting [7]), the UCREA levels result was “increases” and the UTP/UCREA ratio result is “reducing”. Besides, the “Gross observation of kidney tissues (color)” value in series [1] (10 mg/kg daily oral for four weeks, normal control healthy red, cisplatin group white discoloration and edema) was “normal red color”. Besides, in series [1] (10 mg/kg daily oral, week 4, cisplatin group 6.3 ± 0.3 ×10^12, p < 0.001), the “Red blood cells (RBCs)” value is listed as 8.1 ± 0.4 × 10^12 cells/L. Also, in series [1] (10 mg/kg daily oral, week 4, cisplatin group 46.2 ± 1.8%, p < 0.001), the “Hematocrit (HCT)” value was determined as 58.4 ± 2.9%. Further, in series [1] (10 mg/kg daily oral, week 4, cisplatin group 127.7 ± 4.7, p < 0.05), the “Hemoglobin (HGB)” value came to 161.8 ± 9.3 g/L. Moreover, the “cardiac red blood cell count” value in series [4] (0.1 µM in aqueous solution) is recorded as 60%. Moreover, the “cardiac red blood cell count” value in series [4] (1 µM in aqueous solution) was found to be 65%.
